Like-named read-outs stand apart in the source and are kept apart here.

The target in one experiment is T1, TYK2 JH2 (Homo sapiens, UniProt P29597).
T1 construct: purchased DiscoverX (KINOMEscan KdELECT service); host or cells: E. coli BL21-derived (T7 phage display) or HEK-293
Description: TYK2 JH2 binding assay (KINOMEscan KdELECT competitive binding). To be noted: TYK2 JH2 domain, read-out: Biochemical TYK2_DiscoverX_JH2_BND_Kd. The method in brief: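 The assay measures displacement of DNA- or phage-tagged TYK2 pseudokinase domain from an affinity resin; compound binding lowers the amount captured, read by qPCR. Incubation lasts 1 h at room temperature.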

Experiment [1] deals with JAK1/TYK2 pSTAT5 (Tyr694/699) in THP-1 cell line. Description: IFNa-stimulated JAK1/TYK2 pSTAT5 (Tyr694/699) inhibition cellular assay, AlphaLISA. The experiment is classed as cell-based. To be noted: Homo sapiens; THP-1 cells, IFNa-stimulated, AlphaLISA (Assay B); read-out: Cellular_THP1_IFNa-pSTATS_TYK2. The method in brief:
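pSTAT5 (Tyr694/699) in lysates quantified by AlphaLISA (615 nm) after 30 min IFNa stimulation (100 ng/mL stock) of THP-1 cells. The cells, 2e4 per well in HBSS, had first been exposed 1 h at 37° C. to eight 6-fold compound dilutions, 10000 down to 0.04 nM final. IC50 fitted by 4PL regression, bottom 0, Hill slope −1.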
Background: Bead proximity is the source of the signal in Alpha formats.

The mark [2] stands for this setting: DiscoverX KINOMEscan KdELECT (Assay A).

T1 sequence (P29597 589-875 limits assumed): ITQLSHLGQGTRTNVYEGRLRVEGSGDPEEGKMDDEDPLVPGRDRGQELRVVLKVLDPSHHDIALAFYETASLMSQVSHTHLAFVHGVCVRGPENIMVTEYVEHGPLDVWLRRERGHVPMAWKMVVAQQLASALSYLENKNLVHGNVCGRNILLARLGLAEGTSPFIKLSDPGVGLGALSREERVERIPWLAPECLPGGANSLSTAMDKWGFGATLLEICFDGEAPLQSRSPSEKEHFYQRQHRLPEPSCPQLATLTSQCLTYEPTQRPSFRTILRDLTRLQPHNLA

In the case of `CNc1ncc(-c2nc3ccc(N4CCO[C@@H](C)C4)cn3n2)c2cc(NC(=O)[C@@H]3C[C@@H]3C)ncc12` [Example 590, (1R,2S)-2-methyl-N-(8-(methylamino)-5-(6-((S)-2-methylmorpholino)-[1,2,4]triazolo[1,5-a]pyridin-2-yl)-2,7-naphthyridin-3-yl)cyclopropane-11-carboxamide], the Kd at TYK2 JH2 (setting [2]) was ≤ 100 nM. For the same molecule, the IC50 in experiment [1] is ≤ 500 nM.
`CNc1ncc(C#Cc2ccc(OC)cc2)c2cc(NC(=O)C3CC3)ncc12` [Example 591, N-(5-((4-methoxyphenyl)ethynyl)-8-(methylamino)-2,7-naphthyridin-3-yl)cyclopropanecarboxamide]: the Kd at TYK2 JH2 (setting [2]) was ≤ 100 nM. Further, the IC50 in experiment [1] was ≤ 500 nM.
Turning to `CNc1ncc(C#CC2CCOCC2)c2cc(NC(=O)C3CC3)ncc12` [Example 592, N-(8-(methylamino)-5-((tetrahydro-2H-pyran-4-yl)ethynyl)-2,7-naphthyridin-3-yl)cyclopropanecarboxamide], the Kd at TYK2 JH2 (KINOMEscan KdELECT (Assay A)) was ≤ 100 nM. In addition, the IC50 in experiment [1] is > 500 nM.
As for `CNc1ncc(C#Cc2cccc(O)c2)c2cc(NC(=O)C3CC3)ncc12` [Example 593, N-(5-((3-hydroxyphenyl)ethynyl)-8-(methylamino)-2,7-naphthyridin-3-yl)cyclopropanecarboxamide], the Kd at TYK2 JH2 (KINOMEscan KdELECT (Assay A)) is ≤ 100 nM. Besides, in experiment [1], the IC50 is ≤ 500 nM.
For `CCNc1ncc(C#Cc2ccc(OC)cn2)c2cc(NC(=O)C3CC3)ncc12` [Example 594, N-(8-(ethylamino)-5-((5-methoxypyridin-2-yl)ethynyl)-2,7-naphthyridin-3-yl)cyclopropanecarboxamide], in that order: ≤ 100 nM and ≤ 500 nM.
On the same counts, the results for `CNc1ncc(C#Cc2ccc3nnn(C)c3c2)c2cc(NC(=O)C3CC3)ncc12` [Example 595, N-(5-((1-methyl-1H-benzo[d][1,2,3]triazol-6-yl)ethynyl)-8-(methylamino)-2,7-naphthyridin-3-yl)cyclopropanecarboxamide] are ≤ 100 nM and ≤ 500 nM.
Consider `CNc1ncc(C#Cc2ccn(C)n2)c2cc(NC(=O)C3CC3)ncc12` [Example 596, N-(5-((1-methyl-1H-pyrazol-3-yl)ethynyl)-8-(methylamino)-2,7-naphthyridin-3-yl)cyclopropanecarboxamide], for which, on TYK2 JH2 (KINOMEscan KdELECT (Assay A)), the Kd is ≤ 100 nM. In addition, the IC50 in experiment [1] is ≤ 500 nM.
Consider `CNc1ncc(C#Cc2ncn(C)n2)c2cc(NC(=O)C3CC3)ncc12` [Example 597, N-(5-((1-methyl-1H-1,2,4-triazol-3-yl)ethynyl)-8-(methylamino)-2,7-naphthyridin-3-yl)cyclopropanecarboxamide], for which the Kd at TYK2 JH2 (KINOMEscan KdELECT (Assay A)) was ≤ 100 nM. Moreover, the IC50 in experiment [1] is ≤ 500 nM.
On the same counts, the results for `CNc1ncc(C#Cc2nc3ccccn3n2)c2cc(NC(=O)C3CC3)ncc12` [Example 598, N-(5-([1,2,4]triazolo[1,5-a]pyridin-2-ylethynyl)-8-(methylamino)-2,7-naphthyridin-3-yl)cyclopropanecarboxamide] are ≤ 100 nM and ≤ 500 nM.
As for `CNc1ncc(C#Cc2ccncn2)c2cc(NC(=O)C3CC3)ncc12` [Example 599, N-(8-(methylamino)-5-(pyrimidin-4-ylethynyl)-2,7-naphthyridin-3-yl)cyclopropanecarboxamide], the Kd on TYK2 JH2 (KINOMEscan KdELECT (Assay A)) is ≤ 100 nM. Also, the IC50 in experiment [1] is ≤ 500 nM.
Consider `CNc1ncc(C#Cc2cnco2)c2cc(NC(=O)C3CC3)ncc12` [Example 600, N-(8-(methylamino)-5-(oxazol-5-ylethynyl)-2,7-naphthyridin-3-yl)cyclopropanecarboxamide], for which the Kd on TYK2 JH2 (KINOMEscan KdELECT (Assay A)) is ≤ 100 nM. Besides, the IC50 in experiment [1] was ≤ 500 nM.
`CNc1ncc(C#Cc2ccnc(C)c2)c2cc(NC(=O)C3CC3)ncc12` [Example 601, N-(8-(methylamino)-5-((2-methylpyridin-4-yl)ethynyl)-2,7-naphthyridin-3-yl)cyclopropanecarboxamide]: the Kd on TYK2 JH2 (KINOMEscan KdELECT (Assay A)) is ≤ 100 nM. Further, the IC50 in experiment [1] was ≤ 500 nM.
For `CNc1ncc(C#Cc2ccn3cnnc3c2)c2cc(NC(=O)C3CC3)ncc12` [Example 607, N-(5-([1,2,4]triazolo[4,3-a]pyridin-7-ylethynyl)-8-(methylamino)-2,7-naphthyridin-3-yl)cyclopropanecarboxamide], the Kd at TYK2 JH2 (KINOMEscan KdELECT (Assay A)) is ≤ 100 nM. Moreover, the IC50 in experiment [1] is ≤ 500 nM.
`CNc1ncc(C#Cc2ccc(O)c(C#N)c2)c2cc(NC(=O)C3CC3)ncc12` [Example 608, N-(5-((3-cyano-4-hydroxyphenyl)ethynyl)-8-(methylamino)-2,7-naphthyridin-3-yl)cyclopropanecarboxamide]: at TYK2 JH2 (KINOMEscan KdELECT (Assay A)), the Kd was ≤ 100 nM. Moreover, the IC50 in experiment [1] was ≤ 500 nM.
Take `CNc1ncc(C#Cc2ccn3ncnc3c2)c2cc(NC(=O)C3CC3)ncc12` [Example 609, N-(5-([1,2,4]triazolo[1,5-a]pyridin-7-ylethynyl)-8-(methylamino)-2,7-naphthyridin-3-yl)cyclopropanecarboxamide]: on TYK2 JH2 (KINOMEscan KdELECT (Assay A)), the Kd is ≤ 100 nM. Also, the IC50 in experiment [1] was ≤ 500 nM.
In the case of `CNc1ncc(C#Cc2ccc(S(C)(=O)=O)cc2)c2cc(NC(=O)C3CC3)ncc12` [Example 610, N-(8-(methylamino)-5-((4-(methylsulfonyl)phenyl)ethynyl)-2,7-naphthyridin-3-yl)cyclopropanecarboxamide], the Kd at TYK2 JH2 (KINOMEscan KdELECT (Assay A)) is ≤ 100 nM. In experiment [1], the IC50 was ≤ 500 nM.
Regarding `CNc1ncc(C#Cc2cnc3cccnn23)c2cc(NC(=O)C3CC3)ncc12` [Example 611, N-(5-(imidazo[1,2-b]pyridazin-3-ylethynyl)-8-(methylamino)-2,7-naphthyridin-3-yl)cyclopropanecarboxamide], the Kd at TYK2 JH2 (KINOMEscan KdELECT (Assay A)) was ≤ 100 nM. The IC50 in experiment [1] was ≤ 500 nM.
`CNc1ncc(C#Cc2ccncc2OC)c2cc(NC(=O)C3CC3)ncc12` [Example 612, N-(5-((3-methoxypyridin-4-yl)ethynyl)-8-(methylamino)-2,7-naphthyridin-3-yl)cyclopropanecarboxamide]: the Kd on TYK2 JH2 (KINOMEscan KdELECT (Assay A)) was ≤ 100 nM. In addition, the IC50 in experiment [1] was ≤ 500 nM.
`CNc1ncc(C#Cc2ccc(OC)cn2)c2cc(NC(=O)C3CC3)ncc12` [Example 613]: at TYK2 JH2 (KINOMEscan KdELECT (Assay A)), the Kd is ≤ 100 nM. Further, in experiment [1], the IC50 is ≤ 500 nM.
`CNc1ncc(C#Cc2ccc3c(c2)n(C)c(=O)n3C)c2cc(NC(=O)C3CC3)ncc12` [Example 614, N-(5-((1,3-dimethyl-2-oxo-2,3-dihydro-1H-benzo[d]imidazol-5-yl)ethynyl)-8-(methylamino)-2,7-naphthyridin-3-yl)cyclopropanecarboxamide]: on TYK2 JH2 (KINOMEscan KdELECT (Assay A)), the Kd was ≤ 100 nM. Moreover, the IC50 in experiment [1] was ≤ 500 nM.
`CNc1ncc(C#Cc2ccn3c(C)nnc3c2)c2cc(NC(=O)C3CC3)ncc12` [Example 615, N-(5-((3-methyl-[1,2,4]triazolo[4,3-a]pyridin-7-yl)ethynyl)-8-(methylamino)-2,7-naphthyridin-3-yl)cyclopropanecarboxamide]: the Kd at TYK2 JH2 (KINOMEscan KdELECT (Assay A)) was ≤ 100 nM. Besides, in experiment [1], the IC50 was ≤ 500 nM.
Take `CNc1ncc(C#Cc2ccc3ncn(C)c3c2)c2cc(NC(=O)C3CC3)ncc12` [Example 616, N-(5-((1-methyl-1H-benzo[d]imidazol-6-yl)ethynyl)-8-(methylamino)-2,7-naphthyridin-3-yl)cyclopropanecarboxamide]: at TYK2 JH2 (KINOMEscan KdELECT (Assay A)), the Kd was ≤ 100 nM. Further, the IC50 in experiment [1] was ≤ 500 nM.
Take `CNc1ncc(C#Cc2ccc3cnn(C)c3c2)c2cc(NC(=O)C3CC3)ncc12` [Example 617]: on TYK2 JH2 (KINOMEscan KdELECT (Assay A)), the Kd is ≤ 100 nM. The IC50 in experiment [1] is ≤ 500 nM.
In the case of `CNc1ncc(C#Cc2ccc3c(c2)nnn3C)c2cc(NC(=O)C3CC3)ncc12` [Example 618, N-(5-((1-methyl-1H-benzo[d][1,2,3]triazol-5-yl)ethynyl)-8-(methylamino)-2,7-naphthyridin-3-yl)cyclopropanecarboxamide], at TYK2 JH2 (KINOMEscan KdELECT (Assay A)), the Kd is ≤ 100 nM. The IC50 in experiment [1] is ≤ 500 nM.
For `CNc1ncc(C#Cc2cn3ccccc3n2)c2cc(NC(=O)C3CC3)ncc12` [Example 619, N-(5-(imidazo[1,2-a]pyridin-2-ylethynyl)-8-(methylamino)-2,7-naphthyridin-3-yl)cyclopropanecarboxamide], in that order: ≤ 100 nM and ≤ 500 nM.
On the same counts, the results for `CNc1ncc(C#Cc2ccc3ncccc3c2)c2cc(NC(=O)C3CC3)ncc12` [Example 620, N-(8-(methylamino)-5-(quinolin-6-ylethynyl)-2,7-naphthyridin-3-yl)cyclopropanecarboxamide] are ≤ 100 nM and ≤ 500 nM.
Consider `CNc1ncc(C#Cc2ccnc(C(F)F)c2)c2cc(NC(=O)C3CC3)ncc12` [Example 621, N-(5-((2-(difluoromethyl)pyridin-4-yl)ethynyl)-8-(methylamino)-2,7-naphthyridin-3-yl)cyclopropanecarboxamide], for which, on TYK2 JH2 (KINOMEscan KdELECT (Assay A)), the Kd was ≤ 100 nM. Also, the IC50 in experiment [1] was ≤ 500 nM.
As for `CNc1ncc(C#Cc2ccc3ocnc3c2)c2cc(NC(=O)C3CC3)ncc12` [Example 622, N-(5-(benzo[d]oxazol-5-ylethynyl)-8-(methylamino)-2,7-naphthyridin-3-yl)cyclopropanecarboxamide], the Kd at TYK2 JH2 (KINOMEscan KdELECT (Assay A)) is ≤ 100 nM. In addition, in experiment [1], the IC50 was ≤ 500 nM.
As to `CNc1ncc(C#Cc2ccnc(C(F)(F)F)c2)c2cc(NC(=O)C3CC3)ncc12` [Example 623, N-(8-(methylamino)-5-((2-(trifluoromethyl)pyridin-4-yl)ethynyl)-2,7-naphthyridin-3-yl)cyclopropanecarboxamide], the Kd at TYK2 JH2 (KINOMEscan KdELECT (Assay A)) was ≤ 100 nM. Besides, the IC50 in experiment [1] is ≤ 500 nM.

The record behind these values is patent publication US20240025906A1 (NEURON23, INC., priority 2022, published 2024).
